Experimental findings from patent publication US20240270821A1, “GIP/GLP1/GCG TRI-RECEPTOR AGONISTS AND USES THEREOF” (priority 2023, published 2024) are described below.

As a reminder, the EC50 is the concentration needed to bring the measured effect to its halfway point.

Like-named read-outs stand apart in the source and are kept apart here. Starred links: 1 amine or outer side, 2 acyl side, 3 side chain; linkers in the order of their positions; H or OH if unused. Non-standard residues stand in square brackets, D forms with d. Residues, ends and D or L forms follow the SMILES beside them. Groups on a side chain read outwards from the residue. No end group written: not given here. *: point of attachment. C20 diacid = O=C(O)CCCCCCCCCCCCCCCCCCC(=O)*; C18 diacid = O=C(O)CCCCCCCCCCCCCCCCC(=O)*; αMePhe(2-F) = C[C@](N)(Cc1ccccc1F)C(=O)O; γGlu = O=C(O)[C@H](CCC(=O)[*:2])N[*:1]; αMe4Pal = C[C@](N)(Cc1ccncc1)C(=O)O; αMeY = C[C@](N)(Cc1ccc(O)cc1)C(=O)O; 4Pal = N[C@@H](Cc1ccncc1)C(=O)O; αMeL = CC(C)C[C@](C)(N)C(=O)O; αMeS = C[C@](N)(CO)C(=O)O; Orn = NCCC[C@H](N)C(=O)O; AEEA = NCCOCCOCC(=O)O; Aib = CC(C)(N)C(=O)O

Assay type in all cases: cell-based
The target in one experiment is hGcgR (Homo sapiens, UniProt P47871). As to the kind of experiment: Functional cAMP activation in the presence of 0.1% casein (no HSA). Particulars: read-out: Relative cAMP EC50, hGcgR.
Sequence of hGcgR (P47871 26-477): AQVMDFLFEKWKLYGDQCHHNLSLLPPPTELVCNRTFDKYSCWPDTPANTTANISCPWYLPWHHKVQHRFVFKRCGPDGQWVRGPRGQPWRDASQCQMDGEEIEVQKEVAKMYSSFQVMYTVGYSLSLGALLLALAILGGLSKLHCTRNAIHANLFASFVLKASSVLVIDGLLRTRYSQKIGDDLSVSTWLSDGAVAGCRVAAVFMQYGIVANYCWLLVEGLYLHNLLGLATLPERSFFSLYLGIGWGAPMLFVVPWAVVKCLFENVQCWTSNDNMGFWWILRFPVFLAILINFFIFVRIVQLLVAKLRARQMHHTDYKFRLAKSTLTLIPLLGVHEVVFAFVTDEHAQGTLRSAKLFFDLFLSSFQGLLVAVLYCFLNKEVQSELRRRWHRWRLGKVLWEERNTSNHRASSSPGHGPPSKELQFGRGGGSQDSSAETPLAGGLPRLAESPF
Experiment [1] has as its target T1, hGIPR (Homo sapiens, UniProt P48546).
T1 sequence (P48546 22-466): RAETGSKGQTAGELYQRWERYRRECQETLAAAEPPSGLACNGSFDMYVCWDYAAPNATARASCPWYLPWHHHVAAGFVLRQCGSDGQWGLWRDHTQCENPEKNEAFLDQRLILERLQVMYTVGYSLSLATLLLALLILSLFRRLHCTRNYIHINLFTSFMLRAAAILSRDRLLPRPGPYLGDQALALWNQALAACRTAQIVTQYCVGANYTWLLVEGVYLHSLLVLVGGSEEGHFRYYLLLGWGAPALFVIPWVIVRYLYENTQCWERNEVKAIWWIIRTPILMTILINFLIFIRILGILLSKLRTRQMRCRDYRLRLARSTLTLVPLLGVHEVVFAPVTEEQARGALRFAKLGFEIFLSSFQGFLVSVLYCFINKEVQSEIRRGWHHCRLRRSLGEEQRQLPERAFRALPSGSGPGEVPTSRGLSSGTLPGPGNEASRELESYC
Described as above. Particulars: read-out: Relative cAMP EC50, hGIPR.

Experiment [2] has as its target T2, hGLP-1R (Homo sapiens, UniProt P43220). As to the kind of experiment: Functional cAMP activity in the presence of 1% HSA. Particulars: read-out: cAMP Rel EC50, hGLP-1R.
The target of a further experiment is human GcgR (Homo sapiens, UniProt P47871). Description: Functional cAMP activity in the presence of 1% HSA. The settings on record: read-out: cAMP Rel EC50, hGcgR.
Sequence of human GcgR (P47871 26-477): as the sequence (P47871 26-477) above
For experiment [3], the target named is T1, hGIPR. As to the kind of experiment: Functional cAMP activity in the presence of 1% HSA. Particulars: read-out: cAMP Rel EC50, hGIPR.
Experiment [4] concerns the target T2, hGLP-1R. Description: Functional cAMP activation in the presence of 0.1% casein (no HSA). The settings on record: read-out: Relative cAMP EC50, hGLP-1R.
The mark [5] stands for this setting: in the presence of 0.1% casein (no HSA), geometric mean.
Setting [6] is: in the presence of 0.1% casein (no HSA), geometric mean of relative EC50.
Where [7] appears, read: HEK-293 clonal cell line, 1% HSA, geometric mean of relative EC50.
Setting [8] is: 0.1% casein, no HSA, geometric mean.
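Wherever Relative cAMP EC50, hGIPR is given: intracellular cAMP rise after 30 min at 37 °C read by HTRF against a standard curve, scaled between buffer alone (0%) and top control ligand concentration (100%), four-parameter fit.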
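Wherever Relative cAMP EC50, hGLP-1R is given: intracellular cAMP rise after 30 min at 37 °C read by HTRF, normalized between buffer only (0%) and maximal control ligand (100%), four-parameter variable-slope fit.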
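Wherever Relative cAMP EC50, hGcgR is given: intracellular cAMP rise after 30 min at 37 °C, read by HTRF against a cAMP standard curve, scaled from buffer only (0%) to maximal control ligand response (100%).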

T2 sequence (P43220 24-463): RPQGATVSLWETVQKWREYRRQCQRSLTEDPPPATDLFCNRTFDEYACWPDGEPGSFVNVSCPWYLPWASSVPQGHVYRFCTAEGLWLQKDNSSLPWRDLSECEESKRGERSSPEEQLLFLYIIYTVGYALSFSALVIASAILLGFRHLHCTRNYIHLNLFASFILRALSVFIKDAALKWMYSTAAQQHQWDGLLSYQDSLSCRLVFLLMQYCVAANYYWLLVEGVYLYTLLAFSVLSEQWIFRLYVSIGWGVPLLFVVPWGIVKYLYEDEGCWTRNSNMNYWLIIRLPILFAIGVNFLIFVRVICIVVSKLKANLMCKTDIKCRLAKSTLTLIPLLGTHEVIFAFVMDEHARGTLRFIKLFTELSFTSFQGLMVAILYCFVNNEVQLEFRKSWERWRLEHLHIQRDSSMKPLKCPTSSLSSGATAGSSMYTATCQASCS

Turning to “H-Y[Aib]QGTFTSDFS[Orn][αMeL]LDKK([AEEA-γGlu-C20 diacid])AQ[Aib]AFIEYLLE[Aib]GPSSGAPPPSGS-NH2 [Example 73]”, the EC50 at hGcgR (setting [5]) is 4.58 nM; on hGIPR [1] (setting [5]), 0.114 nM; at hGLP-1R [2], 810 nM; on human GcgR it was 1530 nM; on hGIPR [3], 57.9 nM; on hGLP-1R [4] (setting [5]) it was 2.44 nM.
Regarding “H-Y[Aib]QGT[αMePhe(2-F)]TSD[4Pal][αMeS]I[αMeL]LD[Orn]K([AEEA-γGlu-C18 diacid])AQ[Aib]NFIEYLIEGGPSSGEPPPEGE-NH2 [Example 483]”, the EC50 on hGcgR came out at 1.77 nM; on hGIPR [1], 0.0133 nM; at hGLP-1R [2], 18.2 nM; on human GcgR, 231 nM; at hGIPR [3] it was 1.17 nM; on hGLP-1R [4], 0.188 nM.
On to “H-Y[Aib]QGTFTSD[4Pal]SQ[αMeL]LD[Orn]K([AEEA-γGlu-C18 diacid])AQ[Aib]AFIE[αMeY]LLEGGPSSGAPPPSGS-NH2 [Example 911]”, for which the 50% effective concentration (EC50) on hGcgR (setting [5]) was 9.53 nM; at hGIPR [1] (setting [5]), 0.197 nM; on hGLP-1R [2] it was 255 nM; at human GcgR it was 2390 nM; at hGIPR [3], 26.6 nM; on hGLP-1R [4] (setting [5]), 1.09 nM.
For the compound “H-Y[Aib]QGTFTSD[4Pal]SR[αMeL]LDKK([γGlu-γGlu-C18 diacid])AQ[αMe4Pal]AFIEYLIAGGPSSGAPPPSGSEE-NH2 [Example 962]”, the EC50 on hGcgR (setting [5]) was determined as 3.13 nM; on hGIPR [1] (setting [5]), 0.0972 nM; at hGLP-1R [2], 132 nM; on human GcgR, 485 nM; on hGIPR [3] it was 9.71 nM; on hGLP-1R [4] (setting [5]), 1.36 nM.
As for `CC[C@H](C)[C@H](NC(=O)[C@H](Cc1ccccc1)NC(=O)[C@H](C)NC(=O)C(C)(C)NC(=O)[C@H](CCC(N)=O)NC(=O)[C@H](C)NC(=O)[C@H](CCCCNC(=O)COCCOCCNC(=O)CC[C@H](NC(=O)CCCCCCCCCCCCCCCCC(=O)O)C(=O)O)NC(=O)[C@H](CCCN)NC(=O)[C@H](CC(=O)O)NC(=O)[C@H](CC(C)C)NC(=O)[C@](C)(CC(C)C)NC(=O)[C@@H](NC(=O)[C@](C)(CO)NC(=O)[C@H](Cc1ccncc1)NC(=O)[C@H](CC(=O)O)NC(=O)[C@H](CO)NC(=O)[C@@H](NC(=O)[C@](C)(Cc1ccccc1F)NC(=O)[C@@H](NC(=O)CNC(=O)[C@H](CCC(N)=O)NC(=O)C(C)(C)NC(=O)[C@@H](N)Cc1c[nH]cn1)[C@@H](C)O)[C@@H](C)O)[C@@H](C)CC)C(=O)N[C@H](CCC(=O)O)C(=O)N[C@@H](Cc1ccc(O)cc1)C(=O)N[C@@H](CC(C)C)C(=O)N[C@@H](CC(C)C)C(=O)N[C@@H](CCC(=O)O)C(=O)NCC(=O)NCC(=O)N1CCC[C@H]1C(=O)N[C@@H](CO)C(=O)N[C@@H](CO)C(=O)NCC(=O)N[C@@H](CCC(=O)O)C(=O)N1CCC[C@H]1C(=O)N1CCC[C@H]1C(=O)N1CCC[C@H]1C(=O)N[C@@H](CCC(=O)O)C(N)=O` [Example 466] (H-H[Aib]QGT[αMePhe(2-F)]TSD[4Pal][αMeS]I[αMeL]LD[Orn]K([AEEA-γGlu-C18 diacid])AQ[Aib]AFI[dE]YLLEGGPSSGEPPPE-NH2; N-terminus assumed), the EC50 at hGcgR was 5.84 nM; at hGIPR [1] it was 0.0466 nM; on hGLP-1R [2], 13.3 nM; at human GcgR it was 348 nM; on hGIPR [3], 5.65 nM; on hGLP-1R [4], 0.207 nM.
In the case of “H-Y[Aib]QGTFTSD[4Pal]S[Orn][αMeL]LDKK([γGlu-γGlu-C18 diacid])AQ[Aib]AFIE[αMeY]LLEGGPSSGAPPPSGS-NH2 [Example 942]”, the EC50 at hGcgR (setting [5]) turned out to be 6.32 nM; at hGIPR [1] (setting [5]), 0.188 nM; on hGLP-1R [2], 490 nM; at human GcgR it was 1560 nM; at hGIPR [3], 28.3 nM; on hGLP-1R [4] (setting [5]), 3.52 nM.
Consider `CC[C@H](C)[C@H](NC(=O)[C@H](Cc1ccccc1)NC(=O)[C@H](C)NC(=O)C(C)(C)NC(=O)[C@H](CCC(N)=O)NC(=O)[C@H](C)NC(=O)[C@H](CCCCNC(=O)COCCOCCNC(=O)COCCOCCNC(=O)CC[C@H](NC(=O)CCCCCCCCCCCCCCCCCCC(=O)O)C(=O)O)NC(=O)[C@H](CCCCN)NC(=O)[C@H](CC(=O)O)NC(=O)[C@H](CC(C)C)NC(=O)[C@H](CC(C)C)NC(=O)[C@@H](NC(=O)[C@H](CO)NC(=O)[C@H](Cc1ccc(O)cc1)NC(=O)[C@H](CC(=O)O)NC(=O)[C@H](CO)NC(=O)[C@@H](NC(=O)[C@](C)(Cc1ccccc1F)NC(=O)[C@@H](NC(=O)CNC(=O)[C@H](CCC(N)=O)NC(=O)C(C)(C)NC(=O)[C@@H](N)Cc1ccc(O)cc1)[C@@H](C)O)[C@@H](C)O)[C@@H](C)CC)C(=O)N[C@@H](CCC(=O)O)C(=O)N[C@@H](Cc1ccc(O)cc1)C(=O)N[C@@H](CC(C)C)C(=O)N[C@@H](CC(C)C)C(=O)N[C@@H](CCC(=O)O)C(=O)NCC(=O)NCC(=O)N1CCC[C@H]1C(=O)N[C@@H](CO)C(=O)N[C@@H](CO)C(=O)NCC(=O)N[C@@H](C)C(=O)N1CCC[C@H]1C(=O)N1CCC[C@H]1C(=O)N1CCC[C@H]1C(=O)N[C@@H](CCC(=O)O)C(N)=O` [Example 386] (H-Y[Aib]QGT[αMePhe(2-F)]TSDYSILLDKK([AEEA-AEEA-γGlu-C20 diacid])AQ[Aib]AFIEYLLEGGPSSGAPPPE-NH2), for which the EC50 is 1.7 nM on hGcgR (setting [5]); 0.0156 nM on hGIPR [1] (setting [5]); 98.6 nM at hGLP-1R [2]; 734 nM at human GcgR; 5.62 nM at hGIPR [3]; 0.278 nM on hGLP-1R [4] (setting [5]).
Consider “H-Y[Aib]QGT[αMePhe(2-F)]TSD[4Pal][αMeS]I[αMeL]LD[Orn]K([AEEA-γGlu-C18 diacid])AA[Aib]EFI[dE][αMeY]LIEGGPSSGAPPPSGEE-NH2 [Example 703]”, for which the concentration for a half-maximal effect (EC50) at hGcgR (setting [6]) was 1.56 nM; on hGIPR [1] (setting [6]), 0.0101 nM; at hGLP-1R [2] (setting [7]), 27.1 nM; on human GcgR (setting [7]), 201 nM; at hGIPR [3] (setting [7]) it was 0.961 nM; on hGLP-1R [4] (setting [6]), 0.233 nM.
Consider “H-Y[Aib]QGTFTSD[4Pal]SQ[αMeL]LDKK([γGlu-γGlu-C18 diacid])AQ[αMe4Pal]AFIE[αMe4Pal]LIE[Aib]GPSSGEPPPSGEEE-NH2 [Example 1124]”, for which the EC50 at hGcgR (setting [5]) was found to be 6.97 nM; on hGIPR [1] (setting [5]), 0.187 nM; on hGLP-1R [2] it was 304 nM; at human GcgR it was 400 nM; at hGIPR [3], 12 nM; on hGLP-1R [4] (setting [5]), 10.1 nM.
On to “H-Y[Aib]QGTFTSD[4Pal]SQ[αMeL]LD[Orn]K([dE-γGlu-C18 diacid])AQ[αMe4Pal]QFIQ[αMeY]LIE[Aib]GPSSGEPPPSGGGE-NH2 [Example 1129]”, for which the EC50 was 6.11 nM on hGcgR (setting [5]); 0.048 nM on hGIPR [1] (setting [5]); 56.6 nM on hGLP-1R [2]; 796 nM at human GcgR; 4.16 nM on hGIPR [3]; 0.501 nM on hGLP-1R [4] (setting [5]).
As to “H-Y[Aib]QGTFTSDFSK[αMeL]LDKK([AEEA-γGlu-C18 diacid])AQ[Aib]AFIEYLIE[Aib]GESSGAPPPSGS-NH2 [Example 216]”, the EC50 amounted to 2.7 nM at hGcgR (setting [5]); 0.0887 nM on hGIPR [1] (setting [5]); 90.6 nM on hGLP-1R [2]; 895 nM at human GcgR; 12 nM on hGIPR [3]; 0.52 nM at hGLP-1R [4] (setting [5]).
“H-Y[Aib]Q[dA]T[αMePhe(2-F)]TSD[4Pal][αMeS]I[αMeL]LD[Orn]K([γGlu-γGlu-C18 diacid])AQ[Aib]EFI[dE][αMeY]LIEGGPSSGAPPPSGSE-NH2 [Example 1224]”: the EC50 was 2.32 nM at hGcgR (setting [8]); 0.048 nM at hGIPR [1] (setting [8]); 28.4 nM on hGLP-1R [2]; 208 nM on human GcgR; 3.78 nM on hGIPR [3]; 0.379 nM at hGLP-1R [4] (setting [8]).
As to “Y[Aib]QGT[αMePhe(2-F)]TSD[4Pal][αMeS]I[αMeL]LD[Orn]K([AEEA-γGlu-C18 diacid])AQ[αMe4Pal]EFI[dE][αMeY]LIEGGPSSGAPPPESE-NH2 [Example 1146]”, the EC50 was 1.22 nM at hGcgR (setting [5]); 0.00628 nM at hGIPR [1] (setting [5]); 40.1 nM on hGLP-1R [2]; 198 nM on human GcgR; 0.825 nM on hGIPR [3]; 0.281 nM on hGLP-1R [4] (setting [5]).
